Data reported in patent US11802111B2, “Cyclobutyl amide monoacylglycerol lipase modulators” (Janssen Pharmaceutica NV, priority 2020, dated 2023).
pIC50: −log10 of the molar value.

What follows are molecules tested against human MGL from HeLa cells (Homo sapiens (Human), UniProt Q99685) (assay: MGL in vitro activity assay ([glycerol-1,3-3H]-oleoyl glycerol hydrolysis, activated carbon filtration)). Conditions: 300 nM [Glycerol-1,3-3H]-oleoyl glycerol, one hour.
Format: biochemical
Procedure, shortened: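 Endogenous human MGL in HeLa cells/homogenates incubated 1 h with test compounds and 300 nM [glycerol-1,3-3H]-oleoyl glycerol. Released 3H-glycerol passing an activated carbon filter counted as activity; screening at 10 μM compound, top IC50 concentration set empirically.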

Chain of human MGL from HeLa cells (Q99685 whole entry): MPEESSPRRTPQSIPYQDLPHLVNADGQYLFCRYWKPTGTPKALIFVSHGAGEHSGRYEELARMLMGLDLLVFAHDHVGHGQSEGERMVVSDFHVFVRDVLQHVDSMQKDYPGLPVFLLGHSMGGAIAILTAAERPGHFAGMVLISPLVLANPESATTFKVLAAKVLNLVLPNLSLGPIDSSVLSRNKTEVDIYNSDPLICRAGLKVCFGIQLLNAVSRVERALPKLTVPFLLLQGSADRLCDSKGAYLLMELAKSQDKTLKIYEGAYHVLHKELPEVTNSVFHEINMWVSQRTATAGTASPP

Compound | pIC50
C[C@]1(O)C[C@@H](C(=O)N2CC3(CCC(Oc4ccc(OC(F)(F)F)cn4)CC3)C2)C1 [Example 427, ((1s,3s)-3-Hydroxy-3-methylcyclobutyl)(7-((5-(trifluoromethoxy)pyridin-2-yl)oxy)-2-azaspiro[3.5]nonan-2-yl)methanone] | 7.55
COc1cccc(C2CCC3(CC2)CN(C(=O)[C@H]2C[C@@](C)(O)C2)C3)c1 [Example 131, ((1s,3s)-3-Hydroxy-3-methylcyclobutyl)(7-(3-methoxyphenyl)-2-azaspiro[3.5]nonan-2-yl)methanone] | 7.49
C[C@]1(O)C[C@@H](C(=O)N2CC3(CC(c4cccc(N5CCCC5)c4)C3)C2)C1 [Example 32, ((1s,3s)-3-Hydroxy-3-methylcyclobutyl)(6-(3-(pyrrolidin-1-yl)phenyl)-2-azaspiro[3.3]heptan-2-yl)methanone] | 6.75
Cn1ncc2c(F)cc(CC3CC4(C3)CN(C(=O)[C@H]3C[C@@](C)(O)C3)C4)cc21 [Example 303, (6-((4-Fluoro-1-methyl-1H-indazol-6-yl)methyl)-2-azaspiro[3.3]heptan-2-yl)((1s,3s)-3-hydroxy-3-methylcyclobutyl)methanone] | 7.54
C[C@@H](c1ccccc1)[C@H]1CCC2(C1)CN(C(=O)[C@H]1C[C@@](C)(O)C1)C2 (relative stereo) [Example 338, ((1s,3*R)-3-Hydroxy-3-methylcyclobutyl)((*S)-6-((*R)-1-phenylethyl)-2-azaspiro[3.4]octan-2-yl)methanone] | 7.22
Cc1ccc(C2CCC3(C2)CN(C(=O)[C@H]2C[C@@](C)(O)C2)C3)c(C)c1 (mixture of isomers) [Example 14, (rac)-(6-(2,4-Dimethylphenyl)-2-azaspiro[3.4]octan-2-yl)((1s,3s)-3-hydroxy-3-methylcyclobutyl)methanone] | 7.59
CC(C)n1cc2ccc(CC3CC4(C3)CN(C(=O)[C@H]3C[C@@](C)(O)C3)C4)cc2n1 [Example 308, ((1s,3s)-3-Hydroxy-3-methylcyclobutyl)(6-((2-isopropyl-2H-indazol-6-yl)methyl)-2-azaspiro[3.3]heptan-2-yl)methanone] | 6.93
C[C@]1(O)C[C@@H](C(=O)N2CC3(CCC(Oc4cccc(C(F)(F)F)n4)CC3)C2)C1 [Example 421, ((1s,3s)-3-Hydroxy-3-methylcyclobutyl)(7-((6-(trifluoromethyl)pyridin-2-yl)oxy)-2-azaspiro[3.5]nonan-2-yl)methanone] | 7.08
CC(C)(C)c1ccnc(CC2CC3(C2)CN(C(=O)[C@H]2C[C@@](C)(O)C2)C3)c1 [Example 190, (6-((4-(tert-Butyl)pyridin-2-yl)methyl)-2-azaspiro[3.3]heptan-2-yl)((1s,3s)-3-hydroxy-3-methylcyclobutyl)methanone] | 7.14
Cn1nc(C(F)(F)F)cc1C1CCC2(C1)CN(C(=O)[C@H]1C[C@@](C)(O)C1)C2 (mixture of isomers) [Example 101, (rac)-((1s,3s)-3-Hydroxy-3-methylcyclobutyl)(6-(1-methyl-3-(trifluoromethyl)-1H-pyrazol-5-yl)-2-azaspiro[3.4]octan-2-yl)methanone] | 6.12
COc1cc(F)cc(C2CCC3(CC2)CN(C(=O)[C@H]2C[C@@](C)(O)C2)C3)c1F [Example 369, (7-(2,5-Difluoro-3-methoxyphenyl)-2-azaspiro[3.5]nonan-2-yl)((1s,3s)-3-hydroxy-3-methylcyclobutyl)methanone] | 7.46
C[C@]1(O)C[C@@H](C(=O)N2CC3(CCC(c4ccc5ccccc5n4)CC3)C2)C1 [Example 124, ((1s,3s)-3-Hydroxy-3-methylcyclobutyl)(7-(quinolin-2-yl)-2-azaspiro[3.5]nonan-2-yl)methanone] | 6.64
COc1cc(F)c(F)c(C2CCC3(CC2)CN(C(=O)[C@H]2C[C@@](C)(O)C2)C3)c1 [Example 368, (7-(2,3-Difluoro-5-methoxyphenyl)-2-azaspiro[3.5]nonan-2-yl)((1s,3s)-3-hydroxy-3-methylcyclobutyl)methanone] | 7.23
Cn1c(C2CCC3(C2)CN(C(=O)[C@H]2C[C@@](C)(O)C2)C3)nc2ccccc21 (mixture of isomers) [Example 112, (rac)-((1s,3s)-3-Hydroxy-3-methylcyclobutyl)(6-(1-methyl-1H-benzo[d]imidazol-2-yl)-2-azaspiro[3.4]octan-2-yl)methanone] | 5.26
Cn1cc(C2CCC3(CC2)CN(C(=O)[C@H]2C[C@@](C)(O)C2)C3)c2cccnc21 [Example 383, ((1s,3s)-3-Hydroxy-3-methylcyclobutyl)(7-(1-methyl-1H-pyrrolo[2,3-b]pyridin-3-yl)-2-azaspiro[3.5]nonan-2-yl)methanone] | 6.74
C[C@]1(O)C[C@@H](C(=O)N2CC3(CCC(c4cccc(C(F)(F)F)n4)C3)C2)C1 (mixture of isomers) [Example 110, (rac)-((1s,3s)-3-Hydroxy-3-methylcyclobutyl)(6-(6-(trifluoromethyl)pyridin-2-yl)-2-azaspiro[3.4]octan-2-yl)methanone] | 6.36
Cc1ccc(C2CCC3(CC2)CN(C(=O)[C@H]2C[C@@](C)(O)C2)C3)cc1 [Example 136, ((1s,3s)-3-Hydroxy-3-methylcyclobutyl)(7-(p-tolyl)-2-azaspiro[3.5]nonan-2-yl)methanone] | 7.46

Stronger by pIC50, values ahead:

pIC50 | Compound
8.17 | C[C@]1(O)C[C@@H](C(=O)N2CC3(CCC(Cc4ccc(C(F)(F)F)cc4)C3)C2)C1 (mixture of isomers) [Example 171, (rac)-((1s,3s)-3-Hydroxy-3-methylcyclobutyl)(6-(4-(trifluoromethyl)benzyl)-2-azaspiro[3.4]octan-2-yl)methanone]
8.29 | CC1(c2cccc(C3CCC4(CC3)CN(C(=O)[C@H]3C[C@@](C)(O)C3)C4)n2)CC1 [Example 372, ((1s,3s)-3-Hydroxy-3-methylcyclobutyl)(7-(6-(1-methylcyclopropyl)pyridin-2-yl)-2-azaspiro[3.5]nonan-2-yl)methanone]
7.82 | Cc1cc(C(F)(F)F)cnc1OC1CC2(CCN(C(=O)[C@H]3C[C@@](C)(O)C3)CC2)C1 [Example 481, ((1s,3s)-3-Hydroxy-3-methylcyclobutyl)(2-((3-methyl-5-(trifluoromethyl)pyridin-2-yl)oxy)-7-azaspiro[3.5]nonan-7-yl)methanone]
7.82 | CC(C)c1ccc(C2CCC3(C2)CN(C(=O)[C@H]2C[C@@](C)(O)C2)C3)cc1 (mixture of isomers) [Example 35, (rac)-((1s,3s)-3-Hydroxy-3-methylcyclobutyl)(6-(4-isopropylphenyl)-2-azaspiro[3.4]octan-2-yl)methanone]
7.77 | Cc1cc([C@H]2CCC3(C2)CN(C(=O)[C@H]2C[C@@](C)(O)C2)C3)ccc1Cl [Example 70, ((S)-6-(4-Chloro-3-methylphenyl)-2-azaspiro[3.4]octan-2-yl)((1s,3R)-3-hydroxy-3-methylcyclobutyl)methanone]
8.92 | C[C@]1(O)C[C@@H](C(=O)N2CC3(CC(Cc4ccc(C5CC5)cc4)C3)C2)C1 [Example 219, (6-(4-Cyclopropylbenzyl)-2-azaspiro[3.3]heptan-2-yl)((1s,3s)-3-hydroxy-3-methylcyclobutyl)methanone]
8.20 | C[C@]1(O)C[C@@H](C(=O)N2CC3(CC(Cc4cccc(C5CC5)c4)C3)C2)C1 [Example 218, (6-(3-Cyclopropylbenzyl)-2-azaspiro[3.3]heptan-2-yl)((1s,3s)-3-hydroxy-3-methylcyclobutyl)methanone]
9.10 | CC(C)c1c(CC2CC3(C2)CN(C(=O)[C@H]2C[C@@](C)(O)C2)C3)cccc1C(F)(F)F [Example 210, ((1s,3s)-3-Hydroxy-3-methylcyclobutyl)(6-(2-isopropyl-3-(trifluoromethyl)benzyl)-2-azaspiro[3.3]heptan-2-yl)methanone]
8.07 | Cc1ccc(C(F)(F)F)nc1OC1CCC2(CC1)CN(C(=O)[C@H]1C[C@@](C)(O)C1)C2 [Example 449, ((1s,3s)-3-Hydroxy-3-methylcyclobutyl)(7-((3-methyl-6-(trifluoromethyl)pyridin-2-yl)oxy)-2-azaspiro[3.5]nonan-2-yl)methanone]
7.96 | Cc1ccc(C(F)(F)F)cc1C1CCC2(C1)CN(C(=O)[C@H]1C[C@@](C)(O)C1)C2 (mixture of isomers) [Example 78, (rac)-((1s,3s)-3-Hydroxy-3-methylcyclobutyl)(6-(2-methyl-5-(trifluoromethyl)phenyl)-2-azaspiro[3.4]octan-2-yl)methanone]
7.60 | CC(C)(C)c1cccc(C2CC3(C2)CN(C(=O)[C@H]2C[C@@](C)(O)C2)C3)n1 [Example 34, (6-(6-(tert-Butyl)pyridin-2-yl)-2-azaspiro[3.3]heptan-2-yl)((1s,3s)-3-hydroxy-3-methylcyclobutyl)methanone]
8.66 | Cc1cccc(CC2CC3(C2)CN(C(=O)[C@H]2C[C@@](C)(O)C2)C3)c1C(F)(F)F [Example 209, ((1s,3s)-3-Hydroxy-3-methylcyclobutyl)(6-(3-methyl-2-(trifluoromethyl)benzyl)-2-azaspiro[3.3]heptan-2-yl)methanone]
7.82 | Cc1cccc(F)c1C1CCC2(CC1)CN(C(=O)[C@H]1C[C@@](C)(O)C1)C2 [Example 356, (7-(2-Fluoro-6-methylphenyl)-2-azaspiro[3.5]nonan-2-yl)((1s,3s)-3-hydroxy-3-methylcyclobutyl)methanone]
9.70 | Cc1cc(C(F)(F)F)ccc1OC1CCC2(CC1)CN(C(=O)[C@H]1C[C@@](C)(O)C1)C2 [Example 258, ((1s,3s)-3-Hydroxy-3-methylcyclobutyl)(7-(2-methyl-4-(trifluoromethyl)phenoxy)-2-azaspiro[3.5]nonan-2-yl)methanone]
8.21 | COc1nc(OC2CCC3(CC2)CN(C(=O)[C@H]2C[C@@](C)(O)C2)C3)ccc1Cl [Example 461, (7-((5-Chloro-6-methoxypyridin-2-yl)oxy)-2-azaspiro[3.5]nonan-2-yl)((1s,3s)-3-hydroxy-3-methylcyclobutyl)methanone]
7.66 | Cc1cc(F)cc(C2CCC3(CC2)CN(C(=O)[C@H]2C[C@@](C)(O)C2)C3)c1 [Example 352, (7-(3-Fluoro-5-methylphenyl)-2-azaspiro[3.5]nonan-2-yl)((1s,3s)-3-hydroxy-3-methylcyclobutyl)methanone]
